In US10821115B2, “Compounds that inhibit Mcl-1 protein” (priority 2017, dated 2020) one finds IC50 data, which are given here for 6 compounds.

Where two headings read alike, the source gives them in different places.

Assay [1] deals with human multiple myeloma cell line, OPM-2. Briefly: Cell viability assay (OPM-2 10 FBS), CellTiter-Glo. Type of assay: cell-based. An outline of the steps: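 Cells were seeded at 3000 cells/well in RPMI 1640 with 10% FBS and exposed to serially diluted compounds for 16 h at 37 °C, 5% CO2.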
A general note: ATP-based viability assays read luminescence as a measure of living cells.

For assay [2], the target named is recombinant human Mcl-1 (residues 171-327) / Bim interaction (Homo sapiens (Human), UniProt Q07820). In words: biochemical. Type of assay: binding. The following applies: read-out: Mcl-1 HTRF IC50. For orientation: In TR-FRET formats the signal depends on donor and acceptor labels being close together.
recombinant human Mcl-1 (residues 171-327) / Bim interaction, sequence (Q07820 171-327): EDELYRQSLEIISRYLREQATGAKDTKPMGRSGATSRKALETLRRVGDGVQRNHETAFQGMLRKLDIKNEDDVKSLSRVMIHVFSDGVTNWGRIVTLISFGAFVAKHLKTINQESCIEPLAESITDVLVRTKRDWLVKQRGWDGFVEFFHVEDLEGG
Where [3] appears, read: read-out: OPM-2 10% FBS IC50 IP, OPM-2 cells, 10% FBS, 16 h, CellTiter-Glo.
Setting [4] is: TR-FRET, Mcl-1(171-327) / biotin-Bim (51-76).
Where [5] appears, read: Homo sapiens, OPM-2, 16 h, read-out: OPM-2 10% FBS IC50 IP, OPM-2 cells, 10% FBS, 16 h, CellTiter-Glo.

For `C[C@@H]1[C@@H](C)C/C=C/[C@@](O)(C#CCCc2ccccn2)[C@@H]2CC[C@H]2CN2C[C@@]3(CCCc4cc(Cl)ccc43)COc3ccc(cc32)C(=O)NS1(=O)=O` [Example 100440, (1S,3′R,6′R,7′S,8′E,11′S,12′R)-6-chloro-7′-hydroxy-11′,12′-dimethyl-7′-(4-(2-pyridinyl)-1-butyn-1-yl)-3,4-dihydro-2H,15′H-spiro[naphthalene-1,22′-[20]oxa[13]thia[1,14]diazatetracyclo [14.7.2.0~3,6~.0~19,24~]pentacosa[8,16,18,24]tetraen]-15′-one 13′,13′-dioxide], the values for the IC50 in assay [1] (setting [3]) and in assay [2] (setting [4]) were 354 nM and 0.398 nM, respectively.
Take `CO[C@@H](C[C@]1(OC)/C=C/C[C@H](C)[C@@H](C)S(=O)(=O)NC(=O)c2ccc3c(c2)N(C[C@@H]2CC[C@H]21)C[C@@]1(CCCc2cc(Cl)ccc21)CO3)C1CC1` [Example 100462, (1S,3′R,6′R,7′S,8′E,11′S,12′R)-6-chloro-7′-((2S)-2-cyclopropyl-2-methoxyethyl)-7′-methoxy-11′,12′-dimethyl-3,4-dihydro-2H,15′H-spiro[naphthalene-1,22′-[20]oxa[13]thia[1,14]diazatetracyclo [14.7.2.0~3,6~.0~19,24~]pentacosa[8,16,18,24]tetraen]-15′-one 13′,13′-dioxide]: the IC50 was 652 nM in assay [1] (setting [5]) and 0.304 nM in assay [2] (setting [4]).
In the same order, the values of `C[C@@H]1[C@@H](C)C/C=C/[C@](O)(COCCN2CCOCC2)[C@@H]2CC[C@H]2CN2C[C@@]3(CCCc4cc(Cl)ccc43)COc3ccc(cc32)C(=O)NS1(=O)=O` [Example 100356, (1S,3′R,6′R,7′R,8′E,11′S,12′R)-6-chloro-7′-hydroxy-11′,12′-dimethyl-7′-((2-(4-morpholinyl)ethoxy)methyl)-3,4-dihydro-2H,15′H-spiro[naphthalene-1,22′-[20]oxa[13]thia[1,14]diazatetracyclo [14.7.2.0~3,6~.0~19,24~]pentacosa[8,16,18,24]tetraen]-15′-one 13′,13′-dioxide] are 71 nM and 0.084 nM.
In the case of `CCN1CCN(C[C@@]2(OC)/C=C/C[C@H](C)[C@@H](C)S(=O)(=O)NC(=O)c3ccc4c(c3)N(C[C@@H]3CC[C@H]32)C[C@@]2(CCCc3cc(Cl)ccc32)CO4)CC1(C)C` [Example 330, (1S,3′R,6′R,7′R,8′E,11′S,12′R)-6-chloro-7′-((4-ethyl-3,3-dimethyl-1-piperazinyl)methyl)-7′-methoxy-11′,12′-dimethyl-3,4-dihydro-2H,15′H-spiro[naphthalene-1,22′-[20]oxa[13]thia[1,14]diazatetracyclo [14.7.2.0~3,6~.0~19,24~]pentacosa[8,16,18,24]tetraen]-15′-one 13′,13′-dioxide], the IC50 in assay [1] (Homo sapiens, OPM-2, 16 h, read-out: OPM-2 10% FBS IC50 IP, OPM-2 cells, 10% FBS, 16 h incubation) was determined as 278 nM; in assay [2] (0.1 nM Mcl-1(171-327), 0.05 nM biotin-Bim (51-76)) it was 0.425 nM.
For `CO[C@]1(CCN(C)C)CCC[C@H](C)[C@@H](C)S(=O)(=O)NC(=O)c2ccc3c(c2)N(C[C@@H]2CC[C@H]21)C[C@@]1(CCCc2cc(Cl)ccc21)CO3` [Example 100472, (1S,3′R,6′R,7′S,11′S,12′R)-6-chloro-7′-(2-(dimethylamino)ethyl)-7′-methoxy-11′,12′-dimethyl-3,4-dihydro-2H,15′H-spiro[naphthalene-1,22′-[20]oxa[13]thia[1,14]diazatetracyclo [14.7.2.0~3,6~.0~19,24~]pentacosa[16,18,24]trien]-15′-one 13′,13′-dioxide], the IC50 in assay [1] (setting [5]) was 357 nM; in assay [2] (setting [4]) it was 0.651 nM.
For `CO[C@@]1(c2ccc(F)nc2)/C=C/C[C@H](C)[C@@H](C)S(=O)(=O)NC(=O)c2ccc3c(c2)N(C[C@@H]2CC[C@H]21)C[C@@]1(CCCc2cc(Cl)ccc21)CO3` (single isomer, unassigned) [Example 100535], the half-inhibitory concentration (IC50) in assay [1] (setting [3]) came to 964 nM; in assay [2] (setting [4]), 0.57 nM.

The term IC50 denotes the concentration needed to halve the response being measured.
